Results: PMC9269118, “Chemical Constituents of the Flowers of Pueraria lobata and Their Cytotoxic Properties” (Plants, 2022)

Key:
[1] = system: human ovarian cancer cell line A2780; assay: MTT cell viability assay, A2780; type: cell-based; conditions: 48 h incubation, A2780 cells
Text: (§1) To identify anti-tumor constituents in Pueraria Flos, we examined the effects of the 25 isolates on the cell viability of the human ovarian cancer A2780 cell line using the MTT assay. […] To further evaluate the effect of the compounds on the cell viability of non-malignant ovarian epithelial cells, we explored the cytotoxicity of the eight compounds (8, 10, 11, 12, 14, 16, 17, and 21) against the immortalized human ovarian surface epithelial cell line IOSE80PC.
(§2) Human ovarian endometrioid adenocarcinoma cell line A2780 and immortalized ovarian surface epithelial cell line IOSE80PC were provided by Dr. Ie-Ming Shih (Johns Hopkins School of Medicine, Baltimore, MD, USA) and Dr. N. Auersperg (University of British Columbia, Vancouver, British Columbia, Canada), respectively. The cells were cultured in Roswell Park Memorial Institute (RPMI) 1640 supplemented with 5% fetal bovine serum (FBS), penicillin (100 U/mL), and streptomycin sulfate (100 μg/mL) in a 5% CO2 and 95% air humidified atmosphere at 37 °C. RPMI 1640, FBS, streptomycin sulfate, and penicillin were procured from Life Technologies Inc. (Grand Island, NY, USA). The cells were seeded at a density of 1.0 × 10^5 cells/mL in a 96-well plate containing 50 μL of RPMI medium in each well and incubated for 24 h. Various concentrations of compounds dissolved in dimethyl sulfoxide (DMSO) were mixed with RPMI 1640 medium and added into cells in each well. […] Following 48 h incubation, 50 μL of MTT (Molecular Probes Inc., Eugene, OR, USA) solution was added into each well to achieve a final concentration of 0.5 mg/mL and then incubated for an additional 4 h. The medium was discarded, and the formazan blue that formed in the cells was dissolved in 50 μL of DMSO. The optical density was measured at 540 nm by microplate spectrophotometer (SpectraMax; Molecular Devices, Sunnyvale, CA, USA). […] IC50 is defined as the concentration that reduces cell number by 50% compared to control cultures.

[2] = system: immortalized human ovarian surface epithelial cell line IOSE80PC; assay: MTT cell viability assay, IOSE80PC; type: cell-based; conditions: 48 h incubation, IOSE80PC cells
Text: as §1, §2

[3] = system: ovarian cancer cell line A2780; set-up: method as in PMID 18974065, PMID 19447105; conditions: by suppressing the expression of Id1 and focal adhesion kinase; cited from earlier work
[4] = system: VEGF expression; set-up: method as in PMID 19005980; conditions: cited from earlier work
[5] = system: ovarian cancer cell line OVCAR3; set-up: method as in PMID 19005980; conditions: cited from earlier work
[6] = system: breast cancer cell line MCF-7; set-up: method as in PMID 27784319, PMID 15787436; conditions: cited from earlier work
[7] = system: MCF-7; set-up: method as in PMID 19026551; conditions: cited from earlier work
[8] = system: Lu1; set-up: method as in PMID 19026551; conditions: cited from earlier work
[9] = system: LNCaP; set-up: method as in PMID 19026551; conditions: cited from earlier work
[10] = system: murine lymphocytic leukemia (P-388); set-up: method as in doi:10.1016/0031-9422(93)85369-3, PMID 24018191; conditions: cited from earlier work
[11] = system: (HEK293); set-up: method as in doi:10.1016/0031-9422(93)85369-3, PMID 24018191; conditions: cited from earlier work
[12] = system: colon adenocarcinoma (SW-480); set-up: method as in doi:10.1016/0031-9422(93)85369-3, PMID 24018191; conditions: cited from earlier work

Row | Compound | IC50 ([1]; Homo sapiens, A2780, 48 h) [µM] | IC50 ([2]; Homo sapiens, IOSE-80PC) [µM] | also measured
1 | N.N.[Cl][Pt][Cl] [Cisplatin, cisplatin, reference compound] | – | – | IC50 [1]: 10.7 ± 0.81 µM; IC50 [2]: 12.8 ± 0.55 µM
2 | O=C1C[C@@](O)(c2ccc(O)cc2)Oc2cc(O)cc(O[C@@H]3O[C@H](CO)[C@@H](O)[C@H](O)[C@H]3O)c21 [Compound 6, 2-hydroxy-naringenin-5-O-β-D-glucopyranoside] | > 100 | – | –
3 | O=c1cc(-c2ccc(O)cc2)oc2cc(O)cc(O)c12 [Compound 8, apigenin] | – | > 100 | proliferation and migration of A2780 [3]: inhibits the proliferation and migration
4 | C[C@@H]1O[C@@H](OC[C@H]2O[C@@H](Oc3c(-c4ccc(O)cc4)oc4cc(O)cc(O)c4c3=O)[C@H](O)[C@@H](O)[C@@H]2O)[C@H](O)[C@H](O)[C@H]1O [Compound 9, nicotiflorin] | > 100 | – | –
5 | O=c1c(-c2ccc(O)cc2)coc2cc(O)cc(O)c12 [Compound 10, genistein] | – | > 100 | VEGF expression in OVCAR3 [4]: downregulates VEGF expression; cell proliferation in OVCAR3 [5]: inhibits cell proliferation
6 | COc1c(O)cc2occ(-c3ccc(O)cc3)c(=O)c2c1O [Compound 11, tectorigenin] | – | > 100 | –
7 | COc1c(O)cc2occ(-c3ccc(O)c(O)c3)c(=O)c2c1O [Compound 12, irilin D] | < 100 | > 100 | anticancer activity in MCF-7 [6]: anticancer activity; IC50 [1]: 57.5 ± 3.08 µM
8 | COc1c(O[C@@H]2O[C@H](CO)[C@@H](O)[C@H](O)[C@H]2O)cc2occ(-c3ccc(O)cc3)c(=O)c2c1O [Compound 13, tectoridin] | > 100 | – | –
9 | COc1ccc(-c2coc3cc(OC4OC(CO)C(O)C(O)C4O)c(OC)c(O)c3c2=O)cc1 [Compound 14, irisolidone-7-O-β-D-glucopyranoside] | < 100 | > 100 | IC50 [1]: 71.2 ± 11.3 µM
10 | COc1c(OC2OC(COC3OCC(O)C(O)C3O)C(O)C(O)C2O)cc2occ(-c3ccc(O)cc3)c(=O)c2c1O [Compound 15, tectorigenin-7-O-β-D-xylopyranosyl-(1→6)-O-β-D-glucopyronoside] | > 100 | – | –
11 | COc1cc2c(=O)c(-c3ccc(O)cc3)coc2cc1O [Compound 16, glycitein] | – | > 100 | –
12 | COc1ccc(-c2coc3cc(O)c(OC)cc3c2=O)cc1 [Compound 17, afromosin] | – | > 100 | anticancer activity in MCF-7 [6]: anticancer activity
13 | COc1cc([C@@H]2Oc3ccc(-c4cc(=O)c5c(O)cc(O)cc5o4)cc3O[C@H]2CO)ccc1O [Compound 21, (-)-hydnocarpin] | – | 65.8 ± 1.6 | cytotoxicity against MCF-7 [7]: no cytotoxicity; cytotoxicity against Lu1 [8]: no cytotoxicity; cytotoxicity against LNCaP [9]: no cytotoxicity; antiproliferative activity against P-388 [10]: considerable antiproliferative activities; antiproliferative activity against HEK293 [11]: considerable antiproliferative activities; antiproliferative activity against SW-480 [12]: considerable antiproliferative activities
14 | C[C@@H]1O[C@@H](OC[C@H]2O[C@@H](OCc3ccccc3)[C@H](O)[C@@H](O)[C@@H]2O)[C@H](O)[C@H](O)[C@H]1O [Compound 22, hydrageifolin I] | > 100 | – | –
15 | O=c1c(O)c(-c2ccc(O)c(O)c2)oc2cc(O)cc(O)c12 [Quercetin, quercetin, reference compound] | 19.4 ± 2.92 | > 100 | –
